Measured values as given in patent US9521846B2, “Template-fixed peptidomimetics with antimicrobial activity” (priority 2006, dated 2016).
≈ marks a conversion by molar mass, not a printed value. Non-standard residues stand in square brackets, D forms with d. Residues, ends and D or L forms follow the SMILES beside them. Ala(cPr) = N[C@@H](CC1CC1)C(=O)O; Tle = CC(C)(C)[C@H](N)C(=O)O; Dab = NCC[C@H](N)C(=O)O

Columns and labels:
[1] = system: Pseudomonas aeruginosa IMP 1 Livermore 3140; assay type: cell-based; conditions: IMP 1 Livermore 3140
Method in brief: (§1)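 Peptides were serially diluted two-fold in MH broth containing 0.02% BSA and combined 1:1 with bacterial suspension adjusted to roughly 10^6 CFU/ml, following a modified NCCLS microdilution protocol.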

[2] = system: Pseudomonas aeruginosa P8191900; assay type: cell-based; conditions: P8191900
Method in brief: as §1

[3] = system: Pseudomonas aeruginosa P1021903; assay type: cell-based; conditions: P1021903
Method in brief: as §1

[4] = system: Pseudomonas aeruginosa P1021913; assay type: cell-based; conditions: P1021913
Method in brief: as §1

HELA cells (Acc57) = assay: Cytotoxicity assay, MTT reduction (LC 50, GI 50); assay type: cell-based
Method in brief: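 HeLa cells seeded at 7.0×10^3 cells/well, grown 24 h, then exposed to peptides at 12.5, 25 and 50 μM in triplicate for 48 h at 37 °C; MTT (0.5 mg/ml, 2 h), A595 read. Percent growth was taken relative to time-zero plates; LC50 and GI50 were interpolated by linear trend at −50% and 50% growth.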

P. aeruginosa ATCC 27853 = assay type: cell-based, Pseudomonas aeruginosa; conditions: ATCC 27853
Method in brief: as §1

[5] = system: human red blood cells (hRBC); assay: Hemolysis; assay type: cell-based; conditions: 100

MIC P. aeruginosa IMP1 Livermore 3140 [1] [µg/mL]	MIC P. aeruginosa P8191900 [2] [µg/mL]	MIC P. aeruginosa P1021903 [3] [µg/mL]	MIC P. aeruginosa P1021913 [4] [µg/mL]	Average MIC (P. aeruginosa) [µg/mL]	MIC P. aeruginosa ATCC 27853 (P. aeruginosa ATCC 27853) [µg/mL]	SMILES	Cytotoxicity GI50 Hela cells (HELA cells (Acc57)) [µM]	Hemolysis at 100 μg/ml [5] [%]
0.43 (≈ 0.265 µM)	0.18 (≈ 0.111 µM)	0.18 (≈ 0.111 µM)	0.24 (≈ 0.148 µM)	0.22	0.06 (≈ 0.037 µM)	CC[C@H](C)[C@@H]1NC(=O)[C@H](Cc2c[nH]c3ccccc23)NC(=O)[C@H]([C@@H](C)O)NC(=O)[C@@H]2CCCN2C(=O)[C@H]2CCCN2C(=O)[C@H](CCN)NC(=O)[C@H](C(C)(C)C)NC(=O)[C@H](CCN)NC(=O)[C@H](CCN)NC(=O)[C@H](Cc2c[nH]c3ccccc23)NC(=O)[C@H](CCN)NC(=O)[C@H](CCN)NC(=O)[C@H](CCCCN)NC(=O)[C@H](CCN)NC1=O [Example 36] (cyclo(TWI[Dab]K[Dab][Dab]W[Dab][Dab][Tle][Dab][dP]P))	50	0.1
1.17 (≈ 0.722 µM)	0.18 (≈ 0.111 µM)	0.31 (≈ 0.191 µM)	0.37 (≈ 0.228 µM)	0.42	0.06 (≈ 0.037 µM)	CC[C@H](C)[C@@H]1NC(=O)[C@H](Cc2c[nH]c3ccccc23)NC(=O)[C@H]([C@@H](C)O)NC(=O)[C@@H]2CCCN2C(=O)[C@H]2CCCN2C(=O)[C@H](CCN)NC(=O)[C@H](CC2CC2)NC(=O)[C@H](CCN)NC(=O)[C@H](CCN)NC(=O)[C@H](Cc2c[nH]c3ccccc23)NC(=O)[C@H](CCN)NC(=O)[C@H](CCN)NC(=O)[C@H](CCCCN)NC(=O)[C@H](CCN)NC1=O [Example 37] (cyclo(TWI[Dab]K[Dab][Dab]W[Dab][Dab][Ala(cPr)][Dab][dP]P))	50	0.5
1.06 (≈ 0.653 µM)	0.17 (≈ 0.105 µM)	0.17 (≈ 0.105 µM)	0.27 (≈ 0.166 µM)	0.35	0.09 (≈ 0.0554 µM)	CC[C@H](C)[C@@H]1NC(=O)[C@H](Cc2c[nH]c3ccccc23)NC(=O)[C@H]([C@@H](C)O)NC(=O)[C@@H]2CCCN2C(=O)[C@H]2CCCN2C(=O)[C@H](CCN)NC(=O)[C@H](CC(N)=O)NC(=O)[C@H](CCN)NC(=O)[C@H](CCN)NC(=O)[C@H](Cc2c[nH]c3ccccc23)NC(=O)[C@H](CCN)NC(=O)[C@H](CCN)NC(=O)[C@H](CCCCN)NC(=O)[C@H](CCN)NC1=O [Example 38] (cyclo(TWI[Dab]K[Dab][Dab]W[Dab][Dab]N[Dab][dP]P))	50	0.5
0.75 (≈ 0.466 µM)	0.21 (≈ 0.131 µM)	0.31 (≈ 0.193 µM)	0.31 (≈ 0.193 µM)	0.34	0.13 (≈ 0.0808 µM)	CC[C@H](C)[C@@H]1NC(=O)[C@H](Cc2c[nH]c3ccccc23)NC(=O)[C@H]([C@@H](C)O)NC(=O)[C@@H]2CCCN2C(=O)[C@H]2CCCN2C(=O)[C@H](CCN)NC(=O)[C@H](C)NC(=O)[C@H](CCN)NC(=O)[C@H](CCN)NC(=O)[C@H](Cc2c[nH]c3ccccc23)NC(=O)[C@H](CCC(N)=O)NC(=O)[C@H](CCN)NC(=O)[C@H](CCCCN)NC(=O)[C@H](CCN)NC1=O [Example 39] (cyclo(TWI[Dab]K[Dab]QW[Dab][Dab]A[Dab][dP]P))	50	0.4
